Test results taken from ChEMBL document CHEMBL6153110, “Peptide Double-Stapling and Arginine N-Glycosylation Triggered the Development of Therapeutic Antimicrobial Peptides Capable of Killing Drug-Resistant Bacteria in Mice” (J Med Chem, 2025).
Converted amounts (≈) assume the structure as drawn. The source made the active and inactive calls. The rule behind the calls is not given here. Positions of bridges follow the written chain, without caps; N, C: chain ends. Non-standard residues stand in square brackets, D forms with d. Residues, ends and D or L forms follow the SMILES beside them. Arg(Nω-βLac) = N=C(NCCC[C@H](N)C(=O)O)N[C@@H]1O[C@H](CO)[C@@H](O[C@@H]2O[C@H](CO)[C@H](O)[C@H](O)[C@H]2O)[C@H](O)[C@H]1O; S5 = C=CCCC[C@](C)(N)C(=O)O

Columns and labels:
Staphylococcus aureus [1] = test: Antibiofilm activity in methicillin-resistant Staphylococcus aureus ATCC 43300 assessed as prevention of biofilm formation at 0.5 to 4 times of MIC measured after 24 hrs by crystal violet staining based assay; format: functional, organism-based
Cell membrane [2] = test: Induction of cell membrane damage in Klebsiella pneumoniae ATCC 13883 assessed as increase in green fluorescence at MIC measured after 1 hr incubation by SYTO9 confocal microscopy; format: subcellular
Klebsiella pneumoniae [3] = test: (§1) In vivo antibacterial activity against Klebsiella pneumoniae ATCC 13883 induced bacterial pneumonia mouse model assessed as reduction in bacterial load in lungs at 1 mg/kg, injected into trachea after 24 hrs of infection measured after 3 to 7 days; format: functional, organism-based
Klebsiella pneumoniae [4] = test: In vivo antibacterial activity against Klebsiella pneumoniae ATCC 13883 induced bacterial pneumonia mouse model assessed as reduction in bacterial infection induced IL-6 mRNA expression in lung tissue at 4 mg/kg, injected into trachea after 24 hrs of infection measured after 3 to 7 days; format: functional, organism-based
Streptococcus pneumoniae = test: Antimicrobial activity against Streptococcus pneumoniae ATCC 49619 assessed as growth inhibition measured after 8 hrs incubation by standard broth dilution assay; format: functional
Cell membrane [5] = test: Induction of cell membrane damage in Klebsiella pneumoniae ATCC 13883 assessed as increase in red fluorescence at MIC measured after 1 hr incubation by PI based confocal microscopy; format: subcellular
Klebsiella pneumoniae [6] = test: In vivo antibacterial activity against Klebsiella pneumoniae ATCC 13883 induced bacterial pneumonia mouse model assessed as reduction in bacterial infection induced IL-6 level in lung tissue at 4 mg/kg, injected into trachea after 24 hrs of infection measured after 3 to 7 days; format: functional, organism-based
Staphylococcus aureus [7] = test: In vivo antibacterial activity against methicillin-resistant Staphylococcus aureus ATCC 43300 infected locally in full thickness skin wound mouse model assessed as decrease in edema and ulcerative tissue in wound at 4 mg/kg treated with absorbable gelatin sponge measured after 7 days; format: functional, organism-based; conditions: time 7.0 day
Staphylococcus aureus [8] = test: In vivo antibacterial activity against methicillin-resistant Staphylococcus aureus ATCC 43300 infected locally in full thickness skin wound mouse model assessed as clean and less exudate at 1 mg/kg treated with absorbable gelatin sponge measured on early healing stage; format: functional, organism-based; conditions: route id
Cell membrane [9] = test: Induction of cell membrane damage in methicillin-resistant Staphylococcus aureus ATCC 43300 assessed as corrugation, blebbing, breakage, and fragmentation at MIC measured after 1 hr incubation by Scanning electron microscopy; format: subcellular
Klebsiella pneumoniae [10] = test: In vivo antibacterial activity against Klebsiella pneumoniae ATCC 13883 induced bacterial pneumonia mouse model assessed as increase in survival of mouse at 4 mg/kg, injected into trachea after 24 hrs of infection measured after 3 to 7 days; format: functional, organism-based
Staphylococcus aureus [11] = test: In vivo antibacterial activity against methicillin-resistant Staphylococcus aureus ATCC 43300 infected locally in full thickness skin wound mouse model assessed as reduction in bacterial load in skin wound at 1 mg/kg treated with absorbable gelatin sponge measured after 7 days; format: functional, organism-based; conditions: time 7.0 day
Cell membrane [12] = test: Induction of cell membrane damage in methicillin-resistant Staphylococcus aureus ATCC 43300 assessed as increase in red fluorescence at MIC measured after 1 hr incubation by PI based flow cytometry; format: subcellular
Klebsiella pneumoniae [13] = test: In vivo antibacterial activity against Klebsiella pneumoniae ATCC 13883 induced bacterial pneumonia mouse model assessed as reduction in bacterial infection induced TNF-alpha mRNA expression in lung tissue at 4 mg/kg, injected into trachea after 24 hrs of infection measured after 3 to 7 days; format: functional, organism-based
Staphylococcus aureus [14] = test: In vivo antibacterial activity against methicillin-resistant Staphylococcus aureus ATCC 43300 infected locally in full thickness skin wound mouse model assessed as reduction in inflammatory cells in wound at 4 mg/kg treated with absorbable gelatin sponge measured after 7 days; format: functional, organism-based; conditions: time 7.0 day
Staphylococcus aureus [15] = test: In vivo antibacterial activity against methicillin-resistant Staphylococcus aureus ATCC 43300 infected locally in full thickness skin wound mouse model assessed as reduced skin damage by promoting wound healing at 4 mg/kg treated with absorbable gelatin sponge measured on early healing stage; format: functional, organism-based; conditions: route id
Klebsiella pneumoniae [16] = test: Antibiofilm activity in Klebsiella pneumoniae ATCC 13883 assessed as reduction in biofilm formation at 4.6 ug/ml measured after 24 hrs by crystal violet staining based assay relative to control; format: functional; parameters: scale not given: the % may be the effect or the level left; conditions: dose 4.6 µg/ml
Staphylococcus aureus [17] = test: Antibiofilm activity in methicillin-resistant Staphylococcus aureus ATCC 43300 assessed as reduction in biofilm formation at 4.6 ug/ml measured after 24 hrs by crystal violet staining based assay relative to control; format: functional; parameters: scale not given: the % may be the effect or the level left; conditions: dose 4.6 µg/ml
Klebsiella pneumoniae [18] = test: In vivo antibacterial activity against Klebsiella pneumoniae ATCC 13883 induced bacterial pneumonia mouse model assessed as reduction in bacterial infection induced IL-1beta mRNA expression in lung tissue at 4 mg/kg, injected into trachea after 24 hrs of infection measured after 3 to 7 days; format: functional, organism-based
Klebsiella pneumoniae [19] = test: In vivo antibacterial activity against Klebsiella pneumoniae ATCC 13883 induced bacterial pneumonia mouse model assessed as reduction in bacterial load in lungs at 4 mg/kg, injected into trachea after 24 hrs of infection measured after 3 to 7 days; format: functional, organism-based
[20] = Toxicity in mouse assessed as inflammatory infiltration at 40 mg/kg, sc by H and E staining based assay; format: organism-based; conditions: in vivo
Klebsiella pneumoniae [21] = test: as §1, with “infection induced inflammatory response” for “load”, “lungs by measuring large number of alveoli” for “lungs”, “days by H and E staining based assay” for “days”; format: functional, organism-based
Staphylococcus aureus [22] = test: Antibacterial activity against methicillin-resistant Staphylococcus aureus ATCC 43300 assessed as reduction in bacterial count at 4.6 ug/ml in bio-film adjusted BM2 medium; format: functional, organism-based; conditions: dose 4.6 µg/ml
Klebsiella pneumoniae [23] = test: In vivo antibacterial activity against Klebsiella pneumoniae ATCC 13883 induced bacterial pneumonia mouse model assessed as reduction in bacterial infection induced weight loss at 1 mg/kg, injected into trachea after 24 hrs of infection measured after 3 to 7 days; format: functional, organism-based
Staphylococcus aureus [24] = test: In vivo antibacterial activity against methicillin-resistant Staphylococcus aureus ATCC 43300 infected locally in full thickness skin wound mouse model assessed as reduction in bacterial load in skin wound at 1 mg/kg treated with absorbable gelatin sponge measured after 3 days; format: functional, organism-based; conditions: time 3.0 day
Staphylococcus aureus [25] = test: In vivo antibacterial activity against methicillin-resistant Staphylococcus aureus ATCC 43300 infected locally in full thickness skin wound mouse model assessed as reduction in bacterial load in skin wound at 4 mg/kg treated with absorbable gelatin sponge measured after 3 days; format: functional, organism-based; conditions: time 3.0 day
Pseudomonas aeruginosa = test: Antimicrobial activity against Pseudomonas aeruginosa ATCC 27853 assessed as growth inhibition measured after 8 hrs incubation by standard broth dilution assay; format: functional
Staphylococcus aureus [26] = test: In vivo antibacterial activity against methicillin-resistant Staphylococcus aureus ATCC 43300 infected locally in full thickness skin wound mouse model assessed as reduction in bacterial load in skin wound at 4 mg/kg treated with absorbable gelatin sponge measured after 7 days; format: functional, organism-based; conditions: time 7.0 day
Klebsiella pneumoniae [27] = test: In vivo antibacterial activity against Klebsiella pneumoniae ATCC 13883 induced bacterial pneumonia mouse model assessed as reduction in bacterial infection induced weight loss at 4 mg/kg, injected into trachea after 24 hrs of infection measured after 3 to 7 days; format: functional, organism-based
Cell membrane [28] = test: Induction of cell membrane damage in Klebsiella pneumoniae ATCC 13883 assessed as corrugation, blebbing, breakage, and fragmentation at MIC measured after 1 hr incubation by Scanning electron microscopy; format: subcellular
Klebsiella pneumoniae [29] = test: Antimicrobial activity against Klebsiella pneumoniae ATCC 13883 assessed as growth inhibition measured after 8 hrs incubation by standard broth dilution assay; format: functional

Compound: CC(=O)N[C@@H](CCCCN)C(=O)N[C@@H](CCCCN)C(=O)N[C@@H](CCCNC(=N)N)C(=O)N[C@H](C(=O)N[C@@H](CCCCN)C(=O)N[C@@H](CCCCN)C(=O)N[C@@H](CCCNC(=N)N)C(=O)N[C@@]1(C)CCC/C=C\CCC[C@@](C)(C(=O)N[C@@H](CCCCN)C(=O)N[C@@]2(C)CCC/C=C\CCC[C@@](C)(C(=O)N[C@@H](CC(C)C)C(=O)N[C@@H](CCCCN)C(=O)N[C@@H](CCCCN)C(=O)N3CCC[C@H]3C(=O)N[C@H](C(=O)N[C@@H](CCCNC(=N)N[C@@H]3O[C@H](CO)[C@@H](O[C@@H]4O[C@H](CO)[C@H](O)[C@H](O)[C@H]4O)[C@H](O)[C@H]3O)C(N)=O)C(C)C)NC(=O)[C@H](CCCNC(=N)N)NC(=O)[C@H](Cc3c[nH]c4ccccc34)NC(=O)[C@H](Cc3ccc(O)cc3)NC2=O)NC(=O)[C@H](CC(C)C)NC(=O)[C@H](CCCCN)NC(=O)[C@H](Cc2ccccc2)NC1=O)C(C)C (Ac-KKRVKKR[S5]FKL[S5]K[S5]YWR[S5]LKKPV[Arg(Nω-βLac)]-NH2; staple (Z) 8-12, 14-18)
- Activity (Staphylococcus aureus [1]): Dose-dependent-effect
- Activity (Cell membrane [2]): Active
- Activity (Klebsiella pneumoniae [3]): Active; Compound Showed Superior Therapeutic Effect Than Slp-0
- Activity (Klebsiella pneumoniae [4]): Active
- MIC (Streptococcus pneumoniae): 1.1 µg/mL (≈ 0.31 µM)
- Activity (Cell membrane [5]): Active
- Activity (Klebsiella pneumoniae [6]): Active
- Activity (Staphylococcus aureus [7]): Active
- Activity (Staphylococcus aureus [8]): Active; Model Group Showed Yellowish Compared With The Wounds Treated With Compound
- Activity (Cell membrane [9]): Active
- Activity (Klebsiella pneumoniae [10]): Active
- Activity (Staphylococcus aureus [11]): Active
- Activity (Cell membrane [12]): Active
- Activity (Klebsiella pneumoniae [13]): Active
- Activity (Staphylococcus aureus [14]): Active
- Activity (Staphylococcus aureus [15]): Active
- Activity (Klebsiella pneumoniae [16]): 98.18%
- Activity (Staphylococcus aureus [17]): 80.13%
- Activity (Klebsiella pneumoniae [18]): Active
- Activity (Klebsiella pneumoniae [19]): Active; Compound Showed Superior Therapeutic Effect Than Slp-0
- Activity [20]: Toxic
- Activity (Klebsiella pneumoniae [21]): Active
- Activity (Staphylococcus aureus [22]): inactive
- Activity (Klebsiella pneumoniae [23]): Active
- Activity (Staphylococcus aureus [24]): Active
- Activity (Staphylococcus aureus [25]): Active
- MIC (Pseudomonas aeruginosa): 1.1 µg/mL (≈ 0.31 µM)
- Activity (Staphylococcus aureus [26]): Active
- Activity (Klebsiella pneumoniae [27]): Active
- Activity (Cell membrane [28]): Active
- MIC (Klebsiella pneumoniae [29]): 1.1 µg/mL (≈ 0.31 µM)
